“And” between values parts separate entries of the source, which are not always exact repeats. Equal entries are not always repeated.
Species: Rattus norvegicus
Assay: DrugMatrix - Regimen: Daily Repeat
Assay type: toxicity, organism-based, Sprague-Dawley
Design: regimen Daily Repeat, gender Male, age 6-8 weeks
Details: in vivo, vehicle 100 % SALINE
[1] = iv, 15 mg/kg, 72 h, tissue Plasma, dose level High, time 3 day
[2] = iv, 15 mg/kg, 120 h, tissue Blood, dose level High, time 5 day
[3] = iv, 15 mg/kg, 120 h, tissue Plasma, dose level High, time 5 day
[4] = sc, 0 mg/kg, 72 h, tissue Blood, route mini-PUMP - SUBCUTANEOUS, dose level Control, time 3 day
[5] = sc, 0 mg/kg, 72 h, tissue Plasma, route mini-PUMP - SUBCUTANEOUS, dose level Control, time 3 day
[6] = sc, 0 mg/kg, 120 h, tissue Blood, route mini-PUMP - SUBCUTANEOUS, dose level Control, time 5 day
[7] = sc, 0 mg/kg, 120 h, tissue Plasma, route mini-PUMP - SUBCUTANEOUS, dose level Control, time 5 day

Question: What does the source list for CC(C)NCC(O)c1ccc(O)c(O)c1 (stereo not given) [ISOPROTERENOL]?
Answer: POTASSIUM [1]: 6.86 MEQ/L; SODIUM [1]: 146.03 MEQ/L; TOTAL BILIRUBIN [1]: 0.13 mg/dL; TOTAL PROTEIN [1]: 5.8 G/DL; URIC ACID [1]: 1.53 mg/dL; ABSOLUTE BASOPHIL [2]: 0 CELLS/uL; ABSOLUTE EOSINOPHIL [2]: 89.33 CELLS/uL; ABSOLUTE LYMPHOCYTE [2]: 14556.33 CELLS/uL; ABSOLUTE MONOCYTE [2]: 270.67 CELLS/uL; ABSOLUTE SEGMENTED NEUTROPHIL [2]: 850.33 CELLS/uL; BASOPHIL [2]: 0%; EOSINOPHIL [2]: 0.67%; ERYTHROCYTE COUNT [2]: 5.8 x10E6/uL; HEMATOCRIT [2]: 37.17%; HEMOGLOBIN [2]: 13.6 G/DL; LEUKOCYTE COUNT [2]: 15.77 x10E3/uL; LYMPHOCYTE [2]: 92%; MEAN CORPUSCULAR HEMOGLOBIN [2]: 23.53 pg; MEAN CORPUSCULAR HEMOGLOBIN CONCENTRATION [2]: 36.7 G/DL; MEAN CORPUSCULAR VOLUME [2]: 64.07 fL; MONOCYTE [2]: 1.67%; NEUTROPHIL [2]: 5.67%; NUCLEATED RED BLOOD CELLS [2]: 0 /100WBC; PLATELET COUNT [2]: 1301.33 x10E3/uL; ALANINE AMINOTRANSFERASE [3]: 56 u/L; ALBUMIN [3]: 4.03 G/DL; ALKALINE PHOSPHATASE [3]: 369.67 u/L; ASPARTATE AMINOTRANSFERASE [3]: 62.33 u/L; BLOOD UREA NITROGEN [3]: 14.33 mg/dL; CARBON DIOXIDE [3]: 30.33 mmol/L; CHLORIDE [3]: 103.67 MEQ/L; CHOLESTEROL [3]: 65.67 mg/dL; CREATINE PHOSPHOKINASE [3]: 190.67 u/L; CREATININE [3]: 0.23 mg/dL; GLUCOSE [3]: 141 mg/dL; LACTATE DEHYDROGENASE [3]: 80 u/L; LIPASE [3]: 9 u/L; PHOSPHORUS [3]: 11.63 mg/dL; POTASSIUM [3]: 6.67 MEQ/L; SODIUM [3]: 146.27 MEQ/L; TOTAL BILIRUBIN [3]: 0.2 mg/dL; TOTAL PROTEIN [3]: 6.13 G/DL; URIC ACID [3]: 1.43 mg/dL; ABSOLUTE SEGMENTED NEUTROPHIL [4]: 1658.33 CELLS/uL; BASOPHIL [4]: 0.3% and 0%; EOSINOPHIL [4]: 0.43% and 0.5%; ERYTHROCYTE COUNT [4]: 6.91 x10E6/uL and 6.27 x10E6/uL; HEMATOCRIT [4]: 45.43% and 36.95%; HEMOGLOBIN [4]: 14.37 G/DL and 13.4 G/DL; LEUKOCYTE COUNT [4]: 12.09 x10E3/uL and 16.38 x10E3/uL; LYMPHOCYTE [4]: 81.73% and 87.17%; MEAN CORPUSCULAR HEMOGLOBIN [4]: 20.8 pg and 21.42 pg; MEAN CORPUSCULAR HEMOGLOBIN CONCENTRATION [4]: 31.67 G/DL and 36.27 G/DL; MEAN CORPUSCULAR VOLUME [4]: 65.83 fL and 59.03 fL; MONOCYTE [4]: 1.83% and 2%; NEUTROPHIL [4]: 15.07% and 10.33%; NUCLEATED RED BLOOD CELLS [4]: 0 /100WBC; PLATELET COUNT [4]: 1299.67 x10E3/uL and 904.67 x10E3/uL; ALANINE AMINOTRANSFERASE [5]: 34.33 u/L and 48.33 u/L; ALBUMIN [5]: 3.83 G/DL and 3.82 G/DL; ALKALINE PHOSPHATASE [5]: 333.67 u/L and 282.33 u/L; ASPARTATE AMINOTRANSFERASE [5]: 68 u/L and 86.83 u/L; BLOOD UREA NITROGEN [5]: 19.33 mg/dL and 20.17 mg/dL; CARBON DIOXIDE [5]: 43 mmol/L and 34.67 mmol/L; CHLORIDE [5]: 103.67 MEQ/L and 102 MEQ/L; CHOLESTEROL [5]: 84.33 mg/dL and 71.5 mg/dL; CREATINE PHOSPHOKINASE [5]: 334.33 u/L; CREATININE [5]: 0.53 mg/dL and 0.2 mg/dL; GLUCOSE [5]: 156.67 mg/dL and 136.83 mg/dL; LACTATE DEHYDROGENASE [5]: 159 u/L; PHOSPHORUS [5]: 9.8 mg/dL and 10.12 mg/dL; POTASSIUM [5]: 5.93 MEQ/L and 5.92 MEQ/L; SODIUM [5]: 146.33 MEQ/L and 147.8 MEQ/L; TOTAL BILIRUBIN [5]: 0.37 mg/dL and 0.2 mg/dL; TOTAL PROTEIN [5]: 6.4 G/DL and 6.05 G/DL; URIC ACID [5]: 0.73 mg/dL and 1.4 mg/dL; ABSOLUTE SEGMENTED NEUTROPHIL [6]: 3216.67 CELLS/uL; BASOPHIL [6]: 0.2% and 0%; EOSINOPHIL [6]: 0.33% and 0%; ERYTHROCYTE COUNT [6]: 6.81 x10E6/uL and 6.11 x10E6/uL; HEMATOCRIT [6]: 44.33% and 36.22%; HEMOGLOBIN [6]: 13.77 G/DL and 13.18 G/DL; LEUKOCYTE COUNT [6]: 11.2 x10E3/uL and 17.8 x10E3/uL; LYMPHOCYTE [6]: 80.33% and 80.5%; MEAN CORPUSCULAR HEMOGLOBIN [6]: 20.23 pg and 21.62 pg; MEAN CORPUSCULAR HEMOGLOBIN CONCENTRATION [6]: 31.03 G/DL and 36.42 G/DL; MEAN CORPUSCULAR VOLUME [6]: 65.1 fL and 59.37 fL; MONOCYTE [6]: 2.1% and 1.83%; NEUTROPHIL [6]: 16.43% and 17.67%; NUCLEATED RED BLOOD CELLS [6]: 0 /100WBC; PLATELET COUNT [6]: 1573.33 x10E3/uL and 1311 x10E3/uL; ALANINE AMINOTRANSFERASE [7]: 38 u/L and 47 u/L; ALBUMIN [7]: 3.87 G/DL and 3.83 G/DL; ALKALINE PHOSPHATASE [7]: 303.67 u/L and 260.33 u/L; ASPARTATE AMINOTRANSFERASE [7]: 72.67 u/L and 76.17 u/L; BLOOD UREA NITROGEN [7]: 17.33 mg/dL and 14.67 mg/dL; CARBON DIOXIDE [7]: 41.33 mmol/L and 31.33 mmol/L; CHLORIDE [7]: 104.33 MEQ/L and 101.17 MEQ/L; CHOLESTEROL [7]: 74.33 mg/dL and 75 mg/dL; CREATINE PHOSPHOKINASE [7]: 286.67 u/L; CREATININE [7]: 0.47 mg/dL and 0.16 mg/dL; GLUCOSE [7]: 152.33 mg/dL and 152.67 mg/dL; LACTATE DEHYDROGENASE [7]: 147.33 u/L; PHOSPHORUS [7]: 10 mg/dL and 10.97 mg/dL; POTASSIUM [7]: 6.4 MEQ/L and 6 MEQ/L; SODIUM [7]: 146 MEQ/L and 145.52 MEQ/L; TOTAL BILIRUBIN [7]: 0.43 mg/dL and 0.17 mg/dL; TOTAL PROTEIN [7]: 6.27 G/DL and 5.83 G/DL; URIC ACID [7]: 0.83 mg/dL and 1.27 mg/dL; ABSOLUTE SEGMENTED NEUTROPHIL (sc, 0 mg/kg, […], tissue Blood, route mini-PUMP - SUBCUTANEOUS, dose level Control, time 14 day): 2414 CELLS/uL
